In EP1590666B1, “COMPOSITIONS AND METHODS FOR ENHANCING APOPTOSIS” (GENENTECH, INC., priority 2003, dated 2004):

T1: ML-IAP-BIR (Homo sapiens, UniProt Q96CA5)
T1 construct: made in house; host or cells: Escherichia coli BL21 (DE3)
T1 sequence (Q96CA5 63-179): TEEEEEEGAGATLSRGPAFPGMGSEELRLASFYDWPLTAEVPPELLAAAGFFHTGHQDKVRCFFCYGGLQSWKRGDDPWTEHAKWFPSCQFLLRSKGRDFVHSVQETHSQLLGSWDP


Assays:
XIAP-BIR2 = target: T2, XIAP-BIR2 (Homo sapiens, UniProt P98170, C202A/C213G); experiment: fluorescence polarization-based competition assay; assay type: binding; settings: Table 3, positional scanning
T2 construct: X-IAP BIR2 (amino acid residues 124-240 with mutations C202A and C213G); made in house; host or cells: Escherichia coli BL21 (DE3)
Protocol: (§1) The apparent Kd values can be determined from the EC50 values.
(§2) The apparent Kd values were determined from the EC50 values. […] Samples were read after a 10-minute incubation.

ML-IAP-BIR = target: T1, ML-IAP-BIR; experiment: fluorescence polarization-based competition assay; assay type: binding
Protocol: as §1, §2

XIAP-BIR3 = XIAP-BIR3 (Homo sapiens, UniProt P98170); experiment: fluorescence polarization-based competition assay; assay type: binding; design: X-IAP BIR3 (amino acids residues 241-356); made in house; host or cells: Escherichia coli BL21 (DE3)
Protocol: as §1, §2

[1] = target: the molecule itself; experiment: crystal structure, self-association

XIAP-BIR3, sequence (P98170 241-356): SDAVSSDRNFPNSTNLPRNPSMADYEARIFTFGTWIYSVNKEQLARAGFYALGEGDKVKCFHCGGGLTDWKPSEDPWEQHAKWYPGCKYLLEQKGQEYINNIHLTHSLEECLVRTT
T2 sequence (P98170 124-240 C202A/C213G): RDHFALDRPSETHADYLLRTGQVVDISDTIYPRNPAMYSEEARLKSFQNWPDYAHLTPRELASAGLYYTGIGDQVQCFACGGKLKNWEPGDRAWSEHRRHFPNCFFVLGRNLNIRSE

Ki (XIAP-BIR2) | Ki (ML-IAP-BIR) | Ki (XIAP-BIR3) | Molecule | binding result [1]
229 µM | 7.9 µM |  | CC(C)[C@H](NC(=O)[C@H](C)N)C(=O)N1CCC[C@H]1C(=O)N[C@@H](CC1CCCC1)C(=O)N[C@@H](C)C(=O)N[C@@H](CCC(N)=O)C(=O)N[C@@H](CCCCN)C(=O)N[C@@H](CO)C(=O)N[C@@H](CCC(=O)O)C(=O)O [AVPX7AQKSE] | 
27.7 µM | 0.45 µM | 1 µM | CC(C)[C@H](NC(=O)[C@H](C)N)C(=O)N1CCC[C@H]1C(=O)N[C@@H](Cc1ccc(I)cc1)C(=O)N[C@@H](C)C(=O)N[C@@H](CCC(N)=O)C(=O)N[C@@H](CCCCN)C(=O)N[C@@H](CO)C(=O)N[C@@H](CCC(=O)O)C(=O)O [AVPX10AQKSE] | 
 |  | 8.5 µM | CC(C)[C@H](NC(=O)[C@H](C)N)C(=O)N1CCC[C@H]1C(=O)N[C@@H](Cc1ccc(S(=O)(=O)O)cc1)C(=O)N[C@@H](C)C(=O)N[C@@H](CCC(N)=O)C(=O)N[C@@H](CCCCN)C(=O)N[C@@H](CO)C(=O)N[C@@H](CCC(=O)O)C(=O)O [AVPX2AQKSE] | 
 |  |  | ML-IAP-BIR (other, human, UniProt Q96CA5 63-179, looked up, range 63-179; Expressed in E. coli BL21(DE3) from pET15b-MLIAPBIR; also called BIR domain of ML-IAP; not shown: possible N-terminal tag from the pET15b vector (purified on Ni-agarose)) TEEEEEEGAGATLSRGPAFPGMGSEELRLASFYDWPLTAEVPPELLAAAGFFHTGHQDKVRCFFCYGGLQSWKRGDDPWTEHAKWFPSCQFLLRSKGRDFVHSVQETHSQLLGSWDP | binds
